Measured values published in patent US10711002B2, “Purine compounds and method for the treatment of cancer” (THE ROYAL INSTITUTION FOR THE ADVANCEMENT OF …, priority 2016, dated 2020).
Each block holds one molecule with its values, some of them ahead of it.

Key:
[1] = target: AKT1 (PKB alpha) (Homo sapiens, UniProt P31749); test: High-throughput kinase assay; type: biochemical; settings: read-out: Percent inhibition of kinase activity in vitro, AKT1 (PKB alpha); for inhibition at 0.1 µM: 100 nM; for inhibition at 0.5 µM: 500 nM
Procedure: (§1) Screening of Compounds 1-4 against several kinases identified two prominent targets of these compounds as the Aurora A kinase and calcium dependent protein kinase C isoforms α, βI, βII and […] (Tables 1 to 3). IC50s for these two targets were obtained by plotting inhibition levels at 500 nM, 100 nM, 50 nM and 10 nM (FIG. 3). These kinases are directly involved in pathways controlling cell differentiation programs, metastasis signaling, as well as EMT and CSC programming and their overexpression was reported to predict decreased metastasis-free survival.

[2] = target: EEF2K (Homo sapiens, UniProt O00418); test: High-throughput kinase assay; type: biochemical; settings: read-out: Percent inhibition of kinase activity in vitro, EEF2K; for inhibition at 0.1 µM: 100 nM; for inhibition at 0.5 µM: 500 nM
Procedure: as §1

[3] = target: FLT1 (VEGFR1) (Homo sapiens, UniProt P17948); test: High-throughput kinase assay; type: biochemical; settings: read-out: Percent inhibition of kinase activity in vitro, FLT1 (VEGFR1); for inhibition at 0.1 µM: 100 nM; for inhibition at 0.5 µM: 500 nM
Procedure: as §1

[4] = target: MET (cMet) (Homo sapiens, UniProt P08581); test: High-throughput kinase assay; type: biochemical; settings: read-out: Percent inhibition of kinase activity in vitro, MET (cMet); for inhibition at 0.1 µM: 100 nM; for inhibition at 0.5 µM: 500 nM
Chain of MET (cMet) (P08581 25-1390): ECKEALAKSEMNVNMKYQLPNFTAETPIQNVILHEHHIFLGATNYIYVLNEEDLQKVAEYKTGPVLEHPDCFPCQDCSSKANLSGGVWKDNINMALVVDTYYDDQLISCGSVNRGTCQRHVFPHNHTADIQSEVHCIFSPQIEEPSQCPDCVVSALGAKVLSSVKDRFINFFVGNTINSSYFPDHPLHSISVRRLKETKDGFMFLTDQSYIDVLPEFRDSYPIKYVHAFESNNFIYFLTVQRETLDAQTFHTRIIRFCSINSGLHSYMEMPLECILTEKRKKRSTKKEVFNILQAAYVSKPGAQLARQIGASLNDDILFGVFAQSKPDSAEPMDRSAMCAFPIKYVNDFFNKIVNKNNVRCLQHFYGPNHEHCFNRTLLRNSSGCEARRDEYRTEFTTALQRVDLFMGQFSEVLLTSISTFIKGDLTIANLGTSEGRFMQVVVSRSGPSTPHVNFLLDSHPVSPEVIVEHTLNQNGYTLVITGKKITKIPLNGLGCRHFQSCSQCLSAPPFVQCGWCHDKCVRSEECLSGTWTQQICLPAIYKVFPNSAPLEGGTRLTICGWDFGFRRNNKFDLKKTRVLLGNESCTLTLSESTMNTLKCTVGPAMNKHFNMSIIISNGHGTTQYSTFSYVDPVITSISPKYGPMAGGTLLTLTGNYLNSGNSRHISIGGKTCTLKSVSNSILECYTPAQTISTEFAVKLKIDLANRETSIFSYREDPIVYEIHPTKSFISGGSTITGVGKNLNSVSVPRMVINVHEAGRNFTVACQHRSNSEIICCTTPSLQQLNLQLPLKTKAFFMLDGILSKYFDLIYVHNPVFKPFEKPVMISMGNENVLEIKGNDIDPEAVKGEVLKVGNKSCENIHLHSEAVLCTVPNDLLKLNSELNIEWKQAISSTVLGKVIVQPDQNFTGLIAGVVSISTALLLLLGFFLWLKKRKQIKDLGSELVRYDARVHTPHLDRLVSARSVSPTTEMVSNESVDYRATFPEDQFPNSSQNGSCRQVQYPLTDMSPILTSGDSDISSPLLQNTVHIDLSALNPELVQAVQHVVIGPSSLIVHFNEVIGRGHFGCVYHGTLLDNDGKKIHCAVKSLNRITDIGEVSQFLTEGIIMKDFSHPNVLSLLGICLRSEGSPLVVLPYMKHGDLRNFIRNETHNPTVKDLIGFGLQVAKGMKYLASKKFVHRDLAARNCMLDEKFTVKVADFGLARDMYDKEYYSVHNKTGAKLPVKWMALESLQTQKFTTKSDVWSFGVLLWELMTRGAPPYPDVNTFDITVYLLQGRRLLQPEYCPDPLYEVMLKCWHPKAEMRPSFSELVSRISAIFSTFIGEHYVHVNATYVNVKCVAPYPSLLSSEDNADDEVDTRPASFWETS
Procedure: as §1

[5] = target: PIK3CA/PIK3R1 (Homo sapiens, UniProt P42336); test: High-throughput kinase assay; type: biochemical; settings: read-out: Percent inhibition of kinase activity in vitro, PIK3CA/PIK3R1; for inhibition at 0.1 µM: 100 nM; for inhibition at 0.5 µM: 500 nM
Chain of PIK3CA/PIK3R1 (P42336 whole entry): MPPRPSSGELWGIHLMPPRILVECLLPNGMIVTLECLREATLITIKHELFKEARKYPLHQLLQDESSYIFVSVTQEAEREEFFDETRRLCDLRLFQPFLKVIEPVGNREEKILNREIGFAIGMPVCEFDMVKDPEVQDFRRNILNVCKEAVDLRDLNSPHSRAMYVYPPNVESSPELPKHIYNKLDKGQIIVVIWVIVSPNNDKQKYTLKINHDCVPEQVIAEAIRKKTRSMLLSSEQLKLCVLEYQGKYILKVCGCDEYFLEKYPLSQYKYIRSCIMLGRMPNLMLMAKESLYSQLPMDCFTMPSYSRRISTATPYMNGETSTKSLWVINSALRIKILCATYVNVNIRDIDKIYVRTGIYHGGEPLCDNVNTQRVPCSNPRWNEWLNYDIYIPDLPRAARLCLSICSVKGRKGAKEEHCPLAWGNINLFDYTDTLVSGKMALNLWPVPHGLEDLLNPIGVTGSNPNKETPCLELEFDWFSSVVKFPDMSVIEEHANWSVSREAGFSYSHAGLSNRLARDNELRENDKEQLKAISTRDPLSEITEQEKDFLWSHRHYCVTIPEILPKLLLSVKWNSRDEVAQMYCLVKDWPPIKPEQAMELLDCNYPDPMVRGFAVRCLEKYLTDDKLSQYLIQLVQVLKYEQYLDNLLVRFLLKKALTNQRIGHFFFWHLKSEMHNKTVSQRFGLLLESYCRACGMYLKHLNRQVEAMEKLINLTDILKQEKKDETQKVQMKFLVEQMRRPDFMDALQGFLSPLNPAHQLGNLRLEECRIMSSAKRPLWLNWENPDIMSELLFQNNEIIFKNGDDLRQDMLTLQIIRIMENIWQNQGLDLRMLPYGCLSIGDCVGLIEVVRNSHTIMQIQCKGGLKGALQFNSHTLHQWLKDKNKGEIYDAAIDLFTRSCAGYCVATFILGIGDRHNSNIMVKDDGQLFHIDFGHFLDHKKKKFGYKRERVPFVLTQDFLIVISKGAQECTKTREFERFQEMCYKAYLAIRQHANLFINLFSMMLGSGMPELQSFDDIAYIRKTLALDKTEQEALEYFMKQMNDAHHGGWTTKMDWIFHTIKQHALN
Chain of PIK3CA/PIK3R1 (P27986 whole entry partner): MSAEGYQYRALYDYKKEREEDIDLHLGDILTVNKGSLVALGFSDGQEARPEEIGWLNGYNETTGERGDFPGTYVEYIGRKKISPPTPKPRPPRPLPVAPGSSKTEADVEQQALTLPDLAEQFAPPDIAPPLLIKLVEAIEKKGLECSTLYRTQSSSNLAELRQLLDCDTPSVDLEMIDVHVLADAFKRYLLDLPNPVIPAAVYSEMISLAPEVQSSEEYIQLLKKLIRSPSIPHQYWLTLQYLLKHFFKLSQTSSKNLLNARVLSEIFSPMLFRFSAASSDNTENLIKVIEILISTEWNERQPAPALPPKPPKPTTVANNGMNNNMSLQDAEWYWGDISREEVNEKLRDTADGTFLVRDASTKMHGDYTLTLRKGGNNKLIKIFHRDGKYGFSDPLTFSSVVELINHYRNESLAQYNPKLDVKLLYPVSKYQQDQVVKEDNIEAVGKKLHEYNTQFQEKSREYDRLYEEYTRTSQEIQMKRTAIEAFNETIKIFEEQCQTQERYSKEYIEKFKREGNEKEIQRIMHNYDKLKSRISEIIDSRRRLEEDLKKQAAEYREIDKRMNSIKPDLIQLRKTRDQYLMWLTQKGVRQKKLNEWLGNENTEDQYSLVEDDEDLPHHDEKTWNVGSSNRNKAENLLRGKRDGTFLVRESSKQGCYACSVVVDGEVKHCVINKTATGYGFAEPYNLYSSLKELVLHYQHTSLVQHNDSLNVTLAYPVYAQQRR
Procedure: as §1

[6] = target: PRKCA (PKC alpha) (Homo sapiens, UniProt P17252); test: High-throughput kinase assay; type: biochemical; settings: for inhibition at 0.05 µM: 50 nM; for inhibition at 0.1 µM: 100 nM; for inhibition at 0.5 µM: 500 nM
Procedure: as §1

[7] = target: PRKCB2 (PKC beta II) (Homo sapiens, UniProt P05771); test: High-throughput kinase assay; type: biochemical; settings: 50 nM; read-out: Percent inhibition of kinase activity in vitro, PRKCB2 (PKC beta II)
Procedure: as §1

[8] = target: PRKCG (PKC gamma) (Homo sapiens, UniProt P05129); test: High-throughput kinase assay; type: biochemical; settings: 50 nM; read-out: Percent inhibition of kinase activity in vitro, PRKCG (PKC gamma)
Procedure: as §1

[9] = target: PRKCH (PKC eta) (Homo sapiens, UniProt P24723); test: High-throughput kinase assay; type: biochemical; settings: 50 nM; read-out: Percent inhibition of kinase activity in vitro, PRKCH (PKC eta)
Chain of PRKCH (PKC eta) (P24723 whole entry): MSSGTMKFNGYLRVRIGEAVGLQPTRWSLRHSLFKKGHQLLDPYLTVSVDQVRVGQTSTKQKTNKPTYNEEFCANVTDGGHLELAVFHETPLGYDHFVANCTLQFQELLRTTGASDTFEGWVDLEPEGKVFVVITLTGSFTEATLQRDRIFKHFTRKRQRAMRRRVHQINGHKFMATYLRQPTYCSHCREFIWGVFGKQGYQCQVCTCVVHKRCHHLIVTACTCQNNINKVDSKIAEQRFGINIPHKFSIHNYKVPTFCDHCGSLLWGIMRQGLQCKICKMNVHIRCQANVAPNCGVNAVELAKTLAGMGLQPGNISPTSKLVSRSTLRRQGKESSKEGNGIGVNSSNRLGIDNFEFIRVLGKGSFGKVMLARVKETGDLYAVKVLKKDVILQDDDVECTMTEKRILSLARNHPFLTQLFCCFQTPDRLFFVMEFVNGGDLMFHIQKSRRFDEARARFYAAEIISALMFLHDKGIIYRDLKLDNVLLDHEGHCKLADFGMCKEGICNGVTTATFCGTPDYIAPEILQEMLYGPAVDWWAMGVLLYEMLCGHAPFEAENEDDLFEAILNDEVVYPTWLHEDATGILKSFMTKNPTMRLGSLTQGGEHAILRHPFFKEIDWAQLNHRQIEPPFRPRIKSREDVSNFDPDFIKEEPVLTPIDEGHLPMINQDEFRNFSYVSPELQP
Procedure: as §1

[10] = target: T1, PRKCZ (PKC zeta) (Homo sapiens, UniProt Q05513); test: High-throughput kinase assay; type: biochemical; settings: 50 nM; read-out: Percent inhibition of kinase activity in vitro, PRKCZ (PKC zeta)
T1 sequence (Q05513 1-592): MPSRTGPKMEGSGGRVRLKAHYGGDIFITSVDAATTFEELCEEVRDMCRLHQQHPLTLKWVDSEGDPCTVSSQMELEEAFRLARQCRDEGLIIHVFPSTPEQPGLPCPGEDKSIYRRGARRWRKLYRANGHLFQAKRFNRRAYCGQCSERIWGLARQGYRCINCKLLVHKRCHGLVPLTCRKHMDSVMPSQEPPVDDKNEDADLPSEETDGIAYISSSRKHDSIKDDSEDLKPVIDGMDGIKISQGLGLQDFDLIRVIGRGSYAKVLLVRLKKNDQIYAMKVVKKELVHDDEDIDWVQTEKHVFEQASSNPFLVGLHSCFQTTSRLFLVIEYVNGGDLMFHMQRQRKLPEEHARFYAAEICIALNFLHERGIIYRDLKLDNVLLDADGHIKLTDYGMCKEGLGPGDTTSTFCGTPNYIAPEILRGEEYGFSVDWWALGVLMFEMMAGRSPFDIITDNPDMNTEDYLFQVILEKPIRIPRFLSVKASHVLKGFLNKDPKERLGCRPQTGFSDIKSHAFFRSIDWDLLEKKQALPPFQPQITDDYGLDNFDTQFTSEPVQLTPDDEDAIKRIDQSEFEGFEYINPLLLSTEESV
Procedure: as §1

[11] = target: PTK2 (FAK) (Homo sapiens, UniProt Q05397); test: High-throughput kinase assay; type: biochemical; settings: read-out: Percent inhibition of kinase activity in vitro, PTK2 (FAK); for inhibition at 0.1 µM: 100 nM; for inhibition at 0.5 µM: 500 nM
Procedure: as §1

[12] = target: RAF1 (cRAF) Y340D Y341D (Homo sapiens, UniProt P04049, Y340D/Y341D); test: High-throughput kinase assay; type: biochemical; settings: 500 nM; read-out: Percent inhibition of kinase activity in vitro, RAF1 (cRAF) Y340D Y341D
Procedure: as §1

[13] = target: RET (Homo sapiens, UniProt P07949); test: High-throughput kinase assay; type: biochemical; settings: read-out: Percent inhibition of kinase activity in vitro, RET; for inhibition at 0.1 µM: 100 nM; for inhibition at 0.5 µM: 500 nM
Chain of RET (P07949 29-1114): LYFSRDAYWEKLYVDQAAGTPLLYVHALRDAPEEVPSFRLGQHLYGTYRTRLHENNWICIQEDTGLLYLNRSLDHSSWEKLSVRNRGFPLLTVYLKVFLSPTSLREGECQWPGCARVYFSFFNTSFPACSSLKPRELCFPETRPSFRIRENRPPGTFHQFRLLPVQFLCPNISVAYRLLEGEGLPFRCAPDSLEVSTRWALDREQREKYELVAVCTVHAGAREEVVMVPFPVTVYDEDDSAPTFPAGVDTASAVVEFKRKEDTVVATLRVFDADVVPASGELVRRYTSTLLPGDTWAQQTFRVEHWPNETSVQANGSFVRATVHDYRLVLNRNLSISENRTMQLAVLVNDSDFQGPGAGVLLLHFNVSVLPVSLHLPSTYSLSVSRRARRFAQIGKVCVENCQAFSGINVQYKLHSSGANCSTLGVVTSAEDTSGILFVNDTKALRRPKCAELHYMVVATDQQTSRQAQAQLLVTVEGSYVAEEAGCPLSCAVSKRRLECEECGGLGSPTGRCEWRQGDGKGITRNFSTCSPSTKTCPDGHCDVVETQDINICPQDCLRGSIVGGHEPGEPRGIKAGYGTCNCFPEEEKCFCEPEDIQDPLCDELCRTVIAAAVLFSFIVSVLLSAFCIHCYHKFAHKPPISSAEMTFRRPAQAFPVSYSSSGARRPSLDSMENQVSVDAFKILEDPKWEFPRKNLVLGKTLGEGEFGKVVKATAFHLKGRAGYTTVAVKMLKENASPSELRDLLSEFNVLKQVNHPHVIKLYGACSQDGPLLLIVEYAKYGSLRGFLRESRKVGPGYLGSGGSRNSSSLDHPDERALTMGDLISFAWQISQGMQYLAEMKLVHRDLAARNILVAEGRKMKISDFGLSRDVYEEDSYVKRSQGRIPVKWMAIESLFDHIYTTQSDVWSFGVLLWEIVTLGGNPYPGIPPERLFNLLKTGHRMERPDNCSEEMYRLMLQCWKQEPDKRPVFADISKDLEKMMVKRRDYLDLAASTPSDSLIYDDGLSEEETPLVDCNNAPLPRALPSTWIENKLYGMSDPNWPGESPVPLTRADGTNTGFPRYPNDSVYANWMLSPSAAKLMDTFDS
Procedure: as §1

[14] = target: SRC (Homo sapiens, UniProt P12931); test: High-throughput kinase assay; type: biochemical; settings: read-out: Percent inhibition of kinase activity in vitro, SRC; for inhibition at 0.1 µM: 100 nM; for inhibition at 0.5 µM: 500 nM
Procedure: as §1

[15] = system: Mia-PaCa (human pancreatic carcinoma); test: In vivo primary tumor growth, subcutaneous implant; design: species or system SCID mice
Text: In vivo studies were approved by McGill Animal Care Committee. Cells growing in exponential phase of growth (1×10^6 cells/mouse) were transplanted into the mammary fat pad of female SCID (MDA231/M) or Balb/c (4T1) mice. Mia-PaCa cells and RENCA cells were implanted subcutaneously in SCID or Balb/c mice respectively. When primary tumors became palpable mice were randomized and blindly assigned treatment groups. Treatment was given PO for 4 cycles (3 times a week: day 1, day 3, day 5) (n=8-10 mice per condition). Control mice received the vehicle alone (1% DMSO in physiologic solution). […] Tumor size was measured using a caliper. At the study termination (60-90 days) primary tumors were excised and weighted. The lungs were fixed in 10% Bouin's fixative and lung surface metastases were counted using a stereomicroscope.

[16] = read-out: Percent inhibition of kinase activity in vitro, PRKCA (PKC alpha)

Compound: O=c1c2ccccc2[se]n1-c1nc(NC2CCCCC2)c2nc[nH]c2n1 [Compound 1]
inhibition at 0.1 µM [1]: 4%
inhibition at 0.5 µM [1]: 11%
inhibition at 0.1 µM [2]: 7%
inhibition at 0.5 µM [2]: 11%
inhibition at 0.1 µM [3]: 0%
inhibition at 0.5 µM [3]: 1%
inhibition at 0.1 µM [4]: 2%
inhibition at 0.5 µM [4]: 10%
inhibition at 0.1 µM [5]: 0%
inhibition at 0.5 µM [5]: 61%
inhibition at 0.05 µM [6, 16]: 68%
inhibition at 0.1 µM [6, 16]: 83%
inhibition at 0.5 µM [6, 16]: 98%
inhibition at 0.05 µM [7]: 62%
inhibition at 0.05 µM [8]: 45%
inhibition at 0.05 µM [9]: 0%
inhibition at 0.05 µM [10]: 9%
inhibition at 0.1 µM [11]: 5%
inhibition at 0.5 µM [11]: 7%
inhibition at 0.5 µM [12]: 4%
inhibition at 0.1 µM [13]: 5%
inhibition at 0.5 µM [13]: 23%
inhibition at 0.1 µM [14]: 1%
inhibition at 0.5 µM [14]: 5%

Compound: O=c1c2ccccc2[se]n1-c1nc(NC2CC[Se]C2)c2nc[nH]c2n1 (stereo not drawn) [Compound 2]
inhibition at 0.1 µM [1]: 4%
inhibition at 0.5 µM [1]: 15%
inhibition at 0.5 µM [2]: 11%
inhibition at 0.5 µM [3]: 5%
inhibition at 0.1 µM [4]: 1%
inhibition at 0.5 µM [4]: 5%
inhibition at 0.1 µM [5]: 0%
inhibition at 0.5 µM [5]: 62%
inhibition at 0.1 µM [6, 16]: 84%
inhibition at 0.5 µM [6, 16]: 96%
inhibition at 0.1 µM [11]: 5%
inhibition at 0.5 µM [11]: 7%
inhibition at 0.5 µM [12]: 0%
inhibition at 0.1 µM [13]: 6%
inhibition at 0.5 µM [13]: 18%
inhibition at 0.1 µM [14]: 4%
inhibition at 0.5 µM [14]: 7%

Compound: C[C@@H]1C(Nc2nc(-n3[se]c4ccccc4c3=O)nc3[nH]cnc23)C[C@H]2C[C@@H]1C2(C)C (stereo partly drawn) [Compound 3]
inhibition at 0.1 µM [1]: 1%
inhibition at 0.5 µM [1]: 29%
inhibition at 0.5 µM [2]: 5%
inhibition at 0.5 µM [3]: 7%
inhibition at 0.1 µM [4]: 0%
inhibition at 0.5 µM [4]: 17%
inhibition at 0.1 µM [5]: 12%
inhibition at 0.5 µM [5]: 53%
inhibition at 0.1 µM [6, 16]: 45%
inhibition at 0.5 µM [6, 16]: 86%
inhibition at 0.1 µM [11]: 0%
inhibition at 0.5 µM [11]: 8%
inhibition at 0.5 µM [12]: 10%
inhibition at 0.1 µM [13]: 5%
inhibition at 0.5 µM [13]: 36%
inhibition at 0.1 µM [14]: 4%
inhibition at 0.5 µM [14]: 7%

Compound: O=c1c2ccccc2[se]n1-c1nc(N[C@H]2CC[Se]C2)c2nc[nH]c2n1 [Compound 4]
inhibition at 0.1 µM [1]: 4%
inhibition at 0.1 µM [2]: 10%
inhibition at 0.1 µM [3]: 4%
inhibition at 0.1 µM [4]: 4%
inhibition at 0.1 µM [5]: 0%
inhibition at 0.01 µM ([6]; 10 nM, read-out: Percent inhibition of kinase activity in vitro, PRKCA (PKC alpha)): 22%
inhibition at 0.05 µM [6, 16]: 101%
inhibition at 0.1 µM [6, 16]: 98%
IC50 ([6]; from inhibition levels at 500, 100, 50 and 10 nM): 10.9 nM
inhibition at 0.05 µM [7]: 95%
inhibition at 0.05 µM [8]: 47%
inhibition at 0.05 µM [9]: 6%
inhibition at 0.05 µM [10]: 12%
inhibition at 0.1 µM [11]: 1%
inhibition at 0.1 µM [13]: 10%
inhibition at 0.1 µM [14]: 4%
Primary tumor weight ([15]; Mia-PaCa subcutaneous in SCID mice, PO, at study termination): 0.6 ± 0.14 g
pancreatic cancer cell (Mia-PaCa) growth in vivo ([15]; mouse, in vivo): able to inhibit

inhibition at 0.1 µM [1]: 2%
inhibition at 0.1 µM [2]: 1%
inhibition at 0.1 µM [3]: 0%
inhibition at 0.1 µM [4]: 0%
inhibition at 0.1 µM [5]: 0%
inhibition at 0.05 µM [6, 16]: 14%
inhibition at 0.1 µM [6, 16]: 0%
inhibition at 0.05 µM [7]: 5%
inhibition at 0.05 µM [8]: 0%
inhibition at 0.05 µM [9]: 0%
inhibition at 0.05 µM [10]: 9%
inhibition at 0.1 µM [11]: 3%
inhibition at 0.1 µM [13]: 6%
inhibition at 0.1 µM [14]: 3%
Compound: O=C1c2ccccc2CN1c1nc(NC2CCCCC2)c2nc[nH]c2n1 [SLLN-6C, reference compound]
